Data as given in patent publication US20210045385A1, “PYRIDAZINONE-SUBSTITUTED KETOXIMES AS HERBICIDES” (FMC Corporation, priority 2018, published 2021).

Key:
Format in all cases: in vivo
[1] = test system: ducksalad (Heteranhera limosa); test: Test B flooded paddy test, visual plant response rating; conditions: 250 g ai/ha, Flood, applied to paddy water, 2-leaf stage, evaluated after 13 to 15 days
Summary of the method: (§1)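 Plants were raised to the 2-leaf stage, then pots were flooded to 3 cm above the soil and test compound was applied directly into the paddy water. Water depth was held for the whole test; after 13 to 15 days in a greenhouse, responses were scored visually against controls.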

[2] = test system: sedge, umbrella (small-flower umbrella sedge, Cyperus difformis); test: as above; conditions: 250 g ai/ha, Flood, applied to paddy water, 2-leaf stage, evaluated after 13 to 15 days
Summary of the method: as §1

rice (Oryza sativa) = test: as above; conditions: 250 g ai/ha, Flood, applied to paddy water, 2-leaf stage, evaluated after 13 to 15 days
Summary of the method: as §1

[3] = test system: barnyardgrass (Echinochloa crus-galli); test: as above; conditions: 250 g ai/ha, Flood, applied to paddy water, 2-leaf stage, evaluated after 13 to 15 days
Summary of the method: as §1

[4] = test system: ragweed (common ragweed, Ambrosia elatior); test: Test A preemergence, visual plant response rating; conditions: for Ragweed plant response rating (0 to 100 scale): approx. 10 days
Summary of the method: (§2)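 Formulated in a non-phytotoxic solvent mixture including surfactant, each test chemical was sprayed onto the soil surface after sowing, or onto seedlings 2 to 10 cm high. Roughly 10 days later, plants were compared with untreated controls and rated for injury from 0 (no effect) to 100 (complete control).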

[5] = test system: pigweed (Amaranthus retroflexus); test: Test A preemergence, visual plant response rating; conditions: for Pigweed plant response rating (0 to 100 scale): approx. 10 days
Summary of the method: as §2

kochia (Kochia scoparia) [6] = test: Test A preemergence, visual plant response rating; conditions: for Kochia plant response rating (0 to 100 scale): approx. 10 days
Summary of the method: as §2

[7] = test system: Italian ryegrass (Lolium multiflorum); test: Test A preemergence, visual plant response rating; conditions: for Ryegrass, Italian plant response rating (0 to 100 scale): approx. 10 days
Summary of the method: as §2

[8] = test system: barnyardgrass (Echinochloa crus-galli); test: Test A preemergence, visual plant response rating; conditions: for Barnyardgrass plant response rating (0 to 100 scale): approx. 10 days
Summary of the method: as §2

[9] = test system: foxtail, giant (giant foxtail, Setaria faberii); test: Test A preemergence, visual plant response rating; conditions: for Foxtail, Giant plant response rating (0 to 100 scale): approx. 10 days
Summary of the method: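 Greenhouse pot test in loam–sand soil mix: compound in a surfactant-containing non-phytotoxic solvent applied preemergence (directed soil spray) or postemergence (one- to two-leaf plants, 2–10 cm). Injury scored visually after ~10 days, 0–100.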

[10] = test system: ragweed (common ragweed, Ambrosia elatior); test: Test A postemergence, visual plant response rating; conditions: for Ragweed plant response rating (0 to 100 scale): 500 g ai/ha, postemergence, 0 is no effect, 100 is complete control; for Ragweed plant response rating: Postemergence, 125 g ai/ha, 0 to 100 scale (0 no effect, 100 complete control)
Summary of the method: as §2

corn (Zea mays) = test: Test A postemergence, visual plant response rating; conditions: for Corn plant response rating (0 to 100 scale): 500 g ai/ha, postemergence, 0 is no effect, 100 is complete control; for Corn plant response rating: Postemergence, 125 g ai/ha, 0 to 100 scale (0 no effect, 100 complete control)
Summary of the method: as §2

[11] = test system: pigweed (Amaranthus retroflexus); test: Test A postemergence, visual plant response rating; conditions: for Pigweed plant response rating (0 to 100 scale): 500 g ai/ha, postemergence, 0 is no effect, 100 is complete control; for Pigweed plant response rating: Postemergence, 125 g ai/ha, 0 to 100 scale (0 no effect, 100 complete control)
Summary of the method: as §2

kochia (Kochia scoparia) [12] = test: Test A postemergence, visual plant response rating; conditions: for Kochia plant response rating (0 to 100 scale): 500 g ai/ha, postemergence, 0 is no effect, 100 is complete control; for Kochia plant response rating: Postemergence, 125 g ai/ha, 0 to 100 scale (0 no effect, 100 complete control)
Summary of the method: as §2

[13] = test system: blackgrass (Alopecurus myosuroides); test: Test A postemergence, visual plant response rating; conditions: for Blackgrass plant response rating (0 to 100 scale): 500 g ai/ha, postemergence, 0 is no effect, 100 is complete control; for Blackgrass plant response rating: Postemergence, 125 g ai/ha, 0 to 100 scale (0 no effect, 100 complete control)
Summary of the method: as §2

[14] = test system: galium (catchweed bedstraw, Galium aparine); test: Test A postemergence, visual plant response rating; conditions: for Galium plant response rating (0 to 100 scale): 500 g ai/ha, postemergence, 0 is no effect, 100 is complete control; for Galium plant response rating: Postemergence, 125 g ai/ha, 0 to 100 scale (0 no effect, 100 complete control)
Summary of the method: as §2

[15] = test system: wheat (Triticum aestivum); test: Test A postemergence, visual plant response rating; conditions: for Wheat plant response rating (0 to 100 scale): 500 g ai/ha, postemergence, 0 is no effect, 100 is complete control; for Wheat plant response rating: Postemergence, 125 g ai/ha, 0 to 100 scale (0 no effect, 100 complete control)
Summary of the method: as §2

[16] = test system: Italian ryegrass (Lolium multiflorum); test: Test A postemergence, visual plant response rating; conditions: for Ryegrass, Italian plant response rating (0 to 100 scale): 500 g ai/ha, postemergence, 0 is no effect, 100 is complete control; for Ryegrass, Italian plant response rating: Postemergence, 125 g ai/ha, 0 to 100 scale (0 no effect, 100 complete control)
Summary of the method: as §2

[17] = test system: barnyardgrass (Echinochloa crus-galli); test: Test A postemergence, visual plant response rating; conditions: for Barnyardgrass plant response rating (0 to 100 scale): 500 g ai/ha, postemergence, 0 is no effect, 100 is complete control; for Barnyardgrass plant response rating: Postemergence, 125 g ai/ha, 0 to 100 scale (0 no effect, 100 complete control)
Summary of the method: as §2

[18] = test system: foxtail, giant (giant foxtail, Setaria faberii); test: Test A postemergence, visual plant response rating; conditions: for Foxtail, Giant plant response rating (0 to 100 scale): 500 g ai/ha, postemergence, 0 is no effect, 100 is complete control; for Foxtail, Giant plant response rating: Postemergence, 125 g ai/ha, 0 to 100 scale (0 no effect, 100 complete control)
Summary of the method: as §2

[19] = 125 g ai/ha, preemergence, 0 to 100 scale, 0 no effect, 100 complete control

CO/N=C(/c1cccc(F)c1)c1c(O)c(C)nn(C)c1=O [Compound 32]
Plant response rating, Ducksalad (0 to 100 scale, 0 is no effect, 100 is complete control) [1]: 0
Plant response rating, Sedge, Umbrella (0 to 100 scale, 0 is no effect, 100 is complete control) [2]: 0
Plant response rating, Rice (0 to 100 scale, 0 is no effect, 100 is complete control) (rice (Oryza sativa)): 0
Plant response rating, Barnyardgrass (0 to 100 scale, 0 is no effect, 100 is complete control) [3]: 0
Ragweed plant response rating (0 to 100 scale) ([4]; 125 g ai/ha Preemergence): 20
Ragweed plant response rating (0 to 100 scale) ([4]; 500 g ai/ha Preemergence): 40
Pigweed plant response rating (0 to 100 scale) ([5]; 125 g ai/ha Preemergence): 0
Pigweed plant response rating (0 to 100 scale) ([5]; 500 g ai/ha Preemergence): 50
Kochia plant response rating (0 to 100 scale) (kochia (Kochia scoparia) [6]; 125 g ai/ha Preemergence): 0
Kochia plant response rating (0 to 100 scale) (kochia (Kochia scoparia) [6]; 500 g ai/ha Preemergence): 10
Ryegrass, Italian plant response rating (0 to 100 scale) ([7]; 125 g ai/ha Preemergence): 20
Ryegrass, Italian plant response rating (0 to 100 scale) ([7]; 500 g ai/ha Preemergence): 50
Barnyardgrass plant response rating (0 to 100 scale) ([8]; 125 g ai/ha Preemergence): 0
Barnyardgrass plant response rating (0 to 100 scale) ([8]; 500 g ai/ha Preemergence): 0
Foxtail, Giant plant response rating (0 to 100 scale) ([9]; 125 g ai/ha Preemergence): 0
Foxtail, Giant plant response rating (0 to 100 scale) ([9]; 500 g ai/ha Preemergence): 0
Ragweed plant response rating (0 to 100 scale) [10]: 80
Ragweed plant response rating [10]: 50
Corn plant response rating (0 to 100 scale) (corn (Zea mays)): 0
Corn plant response rating (corn (Zea mays)): 0
Pigweed plant response rating (0 to 100 scale) [11]: 40
Pigweed plant response rating [11]: 40
Kochia plant response rating (0 to 100 scale) (kochia (Kochia scoparia) [12]): 70
Kochia plant response rating (kochia (Kochia scoparia) [12]): 20
Blackgrass plant response rating (0 to 100 scale) [13]: 20
Blackgrass plant response rating [13]: 0
Galium plant response rating (0 to 100 scale) [14]: 80
Galium plant response rating [14]: 70
Wheat plant response rating (0 to 100 scale) [15]: 10
Wheat plant response rating [15]: 0
Ryegrass, Italian plant response rating (0 to 100 scale) [16]: 60
Ryegrass, Italian plant response rating [16]: 40
Barnyardgrass plant response rating (0 to 100 scale) [17]: 20
Barnyardgrass plant response rating [17]: 10
Foxtail, Giant plant response rating (0 to 100 scale) [18]: 20
Foxtail, Giant plant response rating [18]: 10

CO/N=C(\c1cccc(C(F)(F)F)c1)c1c(O)c(C)nn(C)c1=O [Compound 71]
Plant response rating, Ducksalad (0 to 100 scale, 0 is no effect, 100 is complete control) [1]: 0
Plant response rating, Sedge, Umbrella (0 to 100 scale, 0 is no effect, 100 is complete control) [2]: 0
Plant response rating, Rice (0 to 100 scale, 0 is no effect, 100 is complete control) (rice (Oryza sativa)): 10
Plant response rating, Barnyardgrass (0 to 100 scale, 0 is no effect, 100 is complete control) [3]: 0
Ragweed plant response rating [4, 19]: 10
Ragweed plant response rating (0 to 100 scale) ([4]; 500 g ai/ha Preemergence): 30
Pigweed plant response rating [5, 19]: 20
Pigweed plant response rating (0 to 100 scale) ([5]; 500 g ai/ha Preemergence): 60
Kochia plant response rating (kochia (Kochia scoparia) [6]; [19]): 0
Kochia plant response rating (0 to 100 scale) (kochia (Kochia scoparia) [6]; 500 g ai/ha Preemergence): 0
Ryegrass, Italian plant response rating [7, 19]: 0
Ryegrass, Italian plant response rating (0 to 100 scale) ([7]; 500 g ai/ha Preemergence): 20
Barnyardgrass plant response rating [8, 19]: 0
Barnyardgrass plant response rating (0 to 100 scale) ([8]; 500 g ai/ha Preemergence): 0
Foxtail, Giant plant response rating [9, 19]: 0
Foxtail, Giant plant response rating (0 to 100 scale) ([9]; 500 g ai/ha Preemergence): 0
Ragweed plant response rating (0 to 100 scale) [10]: 60
Ragweed plant response rating [10]: 20
Corn plant response rating (0 to 100 scale) (corn (Zea mays)): 10
Corn plant response rating (corn (Zea mays)): 0
Pigweed plant response rating (0 to 100 scale) [11]: 70
Pigweed plant response rating [11]: 60
Kochia plant response rating (0 to 100 scale) (kochia (Kochia scoparia) [12]): 60
Kochia plant response rating (kochia (Kochia scoparia) [12]): 50
Blackgrass plant response rating (0 to 100 scale) [13]: 50
Blackgrass plant response rating [13]: 20
Galium plant response rating (0 to 100 scale) [14]: 80
Galium plant response rating [14]: 60
Wheat plant response rating (0 to 100 scale) [15]: 40
Wheat plant response rating [15]: 20
Ryegrass, Italian plant response rating (0 to 100 scale) [16]: 40
Ryegrass, Italian plant response rating [16]: 40
Barnyardgrass plant response rating (0 to 100 scale) [17]: 30
Barnyardgrass plant response rating [17]: 10
Foxtail, Giant plant response rating (0 to 100 scale) [18]: 20
Foxtail, Giant plant response rating [18]: 10
